Key:
[1] = system: A549 cells; assay: Cell viability (MTS); type: cell-based; settings: Homo sapiens, A549, 48 hours
Protocol: (§1) Cells were cultured in RPMI-1640 containing 10% FBS (Jurkat and THP-1) or DMEM containing 10% FBS (A549 and MDA-MB-435). On Day 1, 1-5×10^4 cells per well in 100 μL of the cell culture medium containing 0.5% FBS were seeded into a 96-well flat bottom plate. On Day 2, the test compounds were added to the culture at different concentrations in triplicates. The controls include triplicates of no compound treatment and cell culture medium without cells. The cells were incubated at 5% CO2, 37° C. for 48 hours. On Day 4, MTS reagent was added to each well and incubated at 37° C. for 4 hours. The absorbance was read at 490 nm. The percentage of inhibition was calculated using the formula: [1-(experiment reading-background reading)/(negative control reading-background reading)]×100.

[2] = system: THP1 cells; assay: Cell viability (MTS); type: cell-based; settings: Homo sapiens, THP-1, 48 hours
Protocol: as §1

[3] = system: MDA-MB-435 cells; assay: Cell viability (MTS); type: cell-based; settings: Homo sapiens, MDA-MB-435, 48 hours
Protocol: as §1

[4] = system: Jurkat cells; assay: Cell viability (MTS); type: cell-based; settings: Homo sapiens, Jurkat, 48 hours
Protocol: as §1

[5] = molecular target: T1, recombinant human PDE4B1 enzyme (Homo sapiens, UniProt Q07343); assay: PDE4B1 radiometric enzyme assay; type: biochemical; settings: read-out: Inhibitory activity on PDE4B1 enzyme
T1 construct: host or cells: baculoviral system
Protocol: Assays were performed using recombinant human PDE4B1 enzyme expressed in a baculoviral system. […] The reactions were performed at 1 μM of cAMP. The test articles were each tested at 0.2 μM and 20 μM in triplicates.

[6] = molecular target: IKK β (Homo sapiens, UniProt O14920); assay: Kinase profiling, recombinant kinase; type: biochemical; settings: 5 uM ATP
Protocol: (§2) Kinase profiling was conducted using different recombinant kinase targets against the compounds at 5 uM ATP. The kinases tested included AKT1 (RAC-alpha serine/threonine-protein kinas 1), JAK2, JAK3, p38α, p38β (p38 mitogen-activated protein kinase beta), GSK3β, SYK (Spleen tyrosine kinase), LCK, IKKα and IKKβ and CLK4. The test compounds were tested at 5 μM and 50 μM in triplicates.

[7] = molecular target: JAK2 (Homo sapiens, UniProt O60674); assay: Kinase profiling, recombinant kinase; type: biochemical; settings: 5 uM ATP
Protocol: as §2

[8] = molecular target: AKT1 (Homo sapiens, UniProt P31749); assay: Kinase profiling, recombinant kinase; type: biochemical; settings: 5 uM ATP
Protocol: as §2

[9] = molecular target: SYK (Homo sapiens, UniProt P43405); assay: Kinase profiling, recombinant kinase; type: biochemical; settings: 5 uM ATP
Protocol: as §2

[10] = molecular target: p38 β (Homo sapiens, UniProt Q15759); assay: Kinase profiling, recombinant kinase; type: biochemical; settings: 5 uM ATP
Protocol: as §2

[11] = molecular target: p38 α (Homo sapiens, UniProt Q16539); assay: Kinase profiling, recombinant kinase; type: biochemical; settings: 5 uM ATP
Protocol: as §2

[12] = molecular target: LCK (Homo sapiens, UniProt P06239); assay: Kinase profiling, recombinant kinase; type: biochemical; settings: 5 uM ATP
Protocol: as §2

[13] = molecular target: JAK3 (Homo sapiens, UniProt P52333); assay: Kinase profiling, recombinant kinase; type: biochemical; settings: 5 uM ATP
Protocol: as §2

[14] = molecular target: IKK α (Homo sapiens, UniProt O15111); assay: Kinase profiling, recombinant kinase; type: biochemical; settings: 5 uM ATP
Protocol: as §2

[15] = molecular target: GSK3 β (Homo sapiens, UniProt P49841); assay: Kinase profiling, recombinant kinase; type: biochemical; settings: 5 uM ATP
Protocol: as §2

[16] = molecular target: CLK4 (Homo sapiens, UniProt Q9HAZ1); assay: Kinase profiling, recombinant kinase; type: biochemical; settings: 5 uM ATP
Protocol: as §2

[17] = system: MDA-MB-435 cells; assay: Cell proliferation ([3H]-thymidine); type: cell-based; settings: Homo sapiens, MDA-MB-435, 48 hours, read-out: Anti-proliferation IC50, MDA-MB-435
Protocol: (§3) Cells were cultured in RPMI-1640 containing 10% FBS (Jurkat) or DMEM containing 10% FBS (MDA-MB-435). On Day 1, 1×10^4 cells were seeded into one well of a 96-well white ISOPLATE™ with 0.5% FBS. The cells were cultured at 5% CO2, 37° C. overnight. On Day 2, the diluted test compounds were added into each well in a total volume of 100 μL of cell culture medium. For each cell line were set up three wells containing cells and only diluted DMSO as a negative (vehicle) control, and three wells without cells but containing the same volume and type of cell culture medium as background control. The cells were incubated at 5% CO2, 37° C. for 24 hours. On Day 3, 1 μL of [^3H]-thymidine was added into each well and incubation at 5% CO2, 37° C. was continued for another 24 hours. On Day 4, 30 μL of 50% TCA was added into each well and was incubated at 4° C. for 4 hours. Plates were washed with ddH2O four times and then air dried for 30 minutes followed by the addition of 100 μL of scintillation fluid into each well. The radioactivity was read using MICROBETA TRILUX™. The percentage of inhibition was calculated using the formula [1-(experiment reading-background reading)/(negative control reading-background reading)]×100.

[18] = system: Jurkat cells; assay: Cell proliferation ([3H]-thymidine); type: cell-based; settings: Homo sapiens, Jurkat, 48 hours, read-out: Anti-proliferation IC50, Jurkat
Protocol: as §3

Sequence of AKT1 (P31749 whole entry, species assumed): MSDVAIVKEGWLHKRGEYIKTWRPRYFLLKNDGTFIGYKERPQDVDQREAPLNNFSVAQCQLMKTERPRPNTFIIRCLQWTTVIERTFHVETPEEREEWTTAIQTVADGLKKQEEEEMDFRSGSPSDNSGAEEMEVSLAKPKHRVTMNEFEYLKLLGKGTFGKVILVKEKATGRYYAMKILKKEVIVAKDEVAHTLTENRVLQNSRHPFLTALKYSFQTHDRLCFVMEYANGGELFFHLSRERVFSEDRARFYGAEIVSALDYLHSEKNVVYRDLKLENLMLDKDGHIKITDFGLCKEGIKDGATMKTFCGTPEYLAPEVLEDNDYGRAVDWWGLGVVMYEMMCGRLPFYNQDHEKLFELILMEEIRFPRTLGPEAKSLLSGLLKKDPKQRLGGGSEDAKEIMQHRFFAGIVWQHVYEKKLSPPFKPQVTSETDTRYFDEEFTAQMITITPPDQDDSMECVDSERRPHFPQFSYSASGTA
Sequence of LCK (P06239 whole entry, species assumed): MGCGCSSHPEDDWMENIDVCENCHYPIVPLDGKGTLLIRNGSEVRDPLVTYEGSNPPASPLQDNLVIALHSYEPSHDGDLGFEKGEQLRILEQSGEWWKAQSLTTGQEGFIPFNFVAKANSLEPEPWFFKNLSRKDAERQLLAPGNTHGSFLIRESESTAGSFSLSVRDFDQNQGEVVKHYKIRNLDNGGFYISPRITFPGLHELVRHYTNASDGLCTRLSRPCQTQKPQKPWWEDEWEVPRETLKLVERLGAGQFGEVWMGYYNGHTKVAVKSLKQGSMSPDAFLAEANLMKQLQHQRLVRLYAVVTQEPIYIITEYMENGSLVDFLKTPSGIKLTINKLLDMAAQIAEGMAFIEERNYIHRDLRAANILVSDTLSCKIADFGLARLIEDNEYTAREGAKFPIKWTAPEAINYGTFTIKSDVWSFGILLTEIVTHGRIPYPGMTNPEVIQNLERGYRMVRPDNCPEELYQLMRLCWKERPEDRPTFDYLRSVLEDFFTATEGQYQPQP
Sequence of p38 α (Q16539 whole entry): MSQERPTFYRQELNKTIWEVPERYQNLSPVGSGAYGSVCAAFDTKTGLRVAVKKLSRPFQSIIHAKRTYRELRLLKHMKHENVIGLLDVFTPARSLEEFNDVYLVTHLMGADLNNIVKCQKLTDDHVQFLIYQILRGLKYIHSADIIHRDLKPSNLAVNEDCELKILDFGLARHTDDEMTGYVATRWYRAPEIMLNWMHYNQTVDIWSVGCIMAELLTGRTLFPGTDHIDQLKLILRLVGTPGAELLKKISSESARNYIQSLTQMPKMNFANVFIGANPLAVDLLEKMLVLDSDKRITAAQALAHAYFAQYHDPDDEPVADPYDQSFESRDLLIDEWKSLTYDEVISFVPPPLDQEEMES
Sequence of CLK4 (Q9HAZ1 whole entry, species assumed): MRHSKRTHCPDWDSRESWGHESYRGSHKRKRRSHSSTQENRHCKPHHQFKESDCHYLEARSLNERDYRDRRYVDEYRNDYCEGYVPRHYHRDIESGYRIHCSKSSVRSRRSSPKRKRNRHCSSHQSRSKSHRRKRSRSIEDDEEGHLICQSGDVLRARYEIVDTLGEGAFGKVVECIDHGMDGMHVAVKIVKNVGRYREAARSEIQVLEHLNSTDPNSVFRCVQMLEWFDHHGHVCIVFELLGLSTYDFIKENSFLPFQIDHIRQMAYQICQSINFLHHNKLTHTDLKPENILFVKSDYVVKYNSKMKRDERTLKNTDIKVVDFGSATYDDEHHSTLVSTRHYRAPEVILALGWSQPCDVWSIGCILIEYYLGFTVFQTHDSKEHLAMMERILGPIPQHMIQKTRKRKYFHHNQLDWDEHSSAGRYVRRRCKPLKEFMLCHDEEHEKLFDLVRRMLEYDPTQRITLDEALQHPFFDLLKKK
Sequence of JAK3 (P52333 whole entry, species assumed): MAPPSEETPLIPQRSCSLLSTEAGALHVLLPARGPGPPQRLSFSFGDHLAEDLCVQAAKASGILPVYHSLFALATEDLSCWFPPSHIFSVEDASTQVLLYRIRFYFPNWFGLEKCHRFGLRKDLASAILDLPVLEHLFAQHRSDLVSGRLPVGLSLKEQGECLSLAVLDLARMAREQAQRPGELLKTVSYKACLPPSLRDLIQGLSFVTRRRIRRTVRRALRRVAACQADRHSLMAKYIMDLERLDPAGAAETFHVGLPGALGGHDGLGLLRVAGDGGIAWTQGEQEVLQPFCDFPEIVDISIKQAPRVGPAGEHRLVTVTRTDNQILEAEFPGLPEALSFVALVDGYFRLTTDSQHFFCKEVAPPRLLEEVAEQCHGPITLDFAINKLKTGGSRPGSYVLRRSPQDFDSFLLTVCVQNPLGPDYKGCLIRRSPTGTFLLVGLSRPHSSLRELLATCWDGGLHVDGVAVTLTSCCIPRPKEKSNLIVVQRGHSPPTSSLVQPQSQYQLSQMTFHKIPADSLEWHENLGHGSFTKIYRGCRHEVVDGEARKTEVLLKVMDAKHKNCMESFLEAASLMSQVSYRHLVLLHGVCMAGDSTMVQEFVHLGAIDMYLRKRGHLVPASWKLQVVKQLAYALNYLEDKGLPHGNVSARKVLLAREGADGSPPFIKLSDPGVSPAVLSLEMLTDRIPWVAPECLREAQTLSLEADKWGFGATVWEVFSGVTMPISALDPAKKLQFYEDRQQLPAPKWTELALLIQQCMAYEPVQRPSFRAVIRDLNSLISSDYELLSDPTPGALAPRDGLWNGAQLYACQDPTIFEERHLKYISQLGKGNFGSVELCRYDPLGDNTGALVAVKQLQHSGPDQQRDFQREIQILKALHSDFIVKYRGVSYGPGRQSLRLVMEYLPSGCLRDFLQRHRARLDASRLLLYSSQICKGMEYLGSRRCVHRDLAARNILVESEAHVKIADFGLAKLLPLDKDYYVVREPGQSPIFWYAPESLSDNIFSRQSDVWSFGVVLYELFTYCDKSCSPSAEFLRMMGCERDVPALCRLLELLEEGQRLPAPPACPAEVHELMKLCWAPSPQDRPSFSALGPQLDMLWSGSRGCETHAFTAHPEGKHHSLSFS
Sequence of IKK α (O15111 whole entry, species assumed): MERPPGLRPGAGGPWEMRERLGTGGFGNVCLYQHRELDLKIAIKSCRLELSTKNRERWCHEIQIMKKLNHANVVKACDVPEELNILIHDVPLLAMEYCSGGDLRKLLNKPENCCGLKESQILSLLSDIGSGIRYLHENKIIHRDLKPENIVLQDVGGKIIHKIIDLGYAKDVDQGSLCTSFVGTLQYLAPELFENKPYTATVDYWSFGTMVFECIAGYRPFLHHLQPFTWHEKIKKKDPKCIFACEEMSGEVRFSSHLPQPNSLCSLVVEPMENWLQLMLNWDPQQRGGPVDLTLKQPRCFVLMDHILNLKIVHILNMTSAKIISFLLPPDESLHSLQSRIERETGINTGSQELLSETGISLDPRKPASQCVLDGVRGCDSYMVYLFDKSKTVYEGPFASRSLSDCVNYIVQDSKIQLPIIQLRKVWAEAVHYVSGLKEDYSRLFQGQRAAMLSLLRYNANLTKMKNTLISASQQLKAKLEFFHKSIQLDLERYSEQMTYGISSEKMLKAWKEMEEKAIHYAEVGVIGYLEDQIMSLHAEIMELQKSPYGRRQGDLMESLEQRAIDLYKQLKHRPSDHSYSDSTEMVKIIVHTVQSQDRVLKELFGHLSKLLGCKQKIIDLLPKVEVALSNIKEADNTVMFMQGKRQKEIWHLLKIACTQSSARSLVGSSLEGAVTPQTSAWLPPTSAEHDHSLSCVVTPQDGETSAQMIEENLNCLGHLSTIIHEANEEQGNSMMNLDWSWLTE
Sequence of GSK3 β (P49841 whole entry, species assumed): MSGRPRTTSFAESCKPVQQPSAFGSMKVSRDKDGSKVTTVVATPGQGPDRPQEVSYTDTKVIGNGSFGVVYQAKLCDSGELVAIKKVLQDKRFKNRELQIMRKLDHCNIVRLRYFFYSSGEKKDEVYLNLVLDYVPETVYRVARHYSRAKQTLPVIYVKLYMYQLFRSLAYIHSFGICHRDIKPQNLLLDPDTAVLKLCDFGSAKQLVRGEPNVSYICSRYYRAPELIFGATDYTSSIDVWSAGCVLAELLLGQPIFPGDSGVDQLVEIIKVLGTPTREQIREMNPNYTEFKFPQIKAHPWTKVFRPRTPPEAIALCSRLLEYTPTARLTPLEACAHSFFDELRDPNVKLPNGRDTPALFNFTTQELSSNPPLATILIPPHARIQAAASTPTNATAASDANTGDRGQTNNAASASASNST
T1 sequence (Q07343 whole entry): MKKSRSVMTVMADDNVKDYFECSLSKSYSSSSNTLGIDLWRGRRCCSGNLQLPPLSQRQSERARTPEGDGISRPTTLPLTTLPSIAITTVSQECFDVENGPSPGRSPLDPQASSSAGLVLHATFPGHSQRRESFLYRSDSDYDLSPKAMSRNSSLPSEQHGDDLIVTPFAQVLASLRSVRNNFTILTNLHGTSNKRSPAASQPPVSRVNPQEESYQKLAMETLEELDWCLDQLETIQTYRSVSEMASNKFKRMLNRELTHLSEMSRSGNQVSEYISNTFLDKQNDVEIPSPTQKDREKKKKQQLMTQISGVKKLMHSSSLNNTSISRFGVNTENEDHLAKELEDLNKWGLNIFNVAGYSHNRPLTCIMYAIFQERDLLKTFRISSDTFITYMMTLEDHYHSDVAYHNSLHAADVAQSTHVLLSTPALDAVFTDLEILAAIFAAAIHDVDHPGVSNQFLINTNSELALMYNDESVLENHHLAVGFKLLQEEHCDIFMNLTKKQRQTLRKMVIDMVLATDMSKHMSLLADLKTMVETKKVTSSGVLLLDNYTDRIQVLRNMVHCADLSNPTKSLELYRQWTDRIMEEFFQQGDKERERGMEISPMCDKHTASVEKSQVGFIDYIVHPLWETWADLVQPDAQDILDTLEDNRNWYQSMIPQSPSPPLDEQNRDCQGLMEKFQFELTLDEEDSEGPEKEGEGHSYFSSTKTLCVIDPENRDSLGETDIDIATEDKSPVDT

CC(C)c1ccc(/C=C/c2ccc(F)cc2)cc1O [Compound 2, 3-hydroxy-4-isopropyl-4′-fluoro-(E)-stilbene]
IC50 [1]: 45 µM
IC50 [2]: 3.15 µM
IC50 [3]: 24.9 µM
IC50 [4]: 7.6 µM
inhibition at 0.2 µM [5]: 15 to 30%
inhibition at 20 µM [5]: > 50%
inhibition at 5 µM ([6]; 5 μM compound): < 20%
inhibition at 50 µM ([6]; 50 μM compound): 31 to 50%
inhibition at 5 µM ([7]; 5 μM compound): < 20%
inhibition at 50 µM ([7]; 50 μM compound): > 50%
inhibition at 5 µM ([8]; 5 μM compound): < 20%
inhibition at 50 µM ([8]; 50 μM compound): < 20%
inhibition at 5 µM ([9]; 5 μM compound): < 20%
inhibition at 50 µM ([9]; 50 μM compound): < 20%
inhibition at 5 µM ([10]; 5 μM compound): < 20%
inhibition at 50 µM ([10]; 50 μM compound): 20 to 30%
inhibition at 5 µM ([11]; 5 μM compound): < 20%
inhibition at 50 µM ([11]; 50 μM compound): > 50%
inhibition at 5 µM ([12]; 5 μM compound): < 20%
inhibition at 50 µM ([12]; 50 μM compound): 31 to 50%
inhibition at 5 µM ([13]; 5 μM compound): < 20%
inhibition at 50 µM ([13]; 50 μM compound): 20 to 30%
inhibition at 5 µM ([14]; 5 μM compound): < 20%
inhibition at 50 µM ([14]; 50 μM compound): < 20%
inhibition at 5 µM ([15]; 5 μM compound): < 20%
inhibition at 50 µM ([15]; 50 μM compound): > 50%
inhibition at 5 µM ([16]; 5 μM compound): > 50%
inhibition at 50 µM ([16]; 50 μM compound): > 50%
IC50 [17]: 6.02 µM
IC50 [18]: 1.67 µM

Reference: patent US11000485B2, “Substituted hydroxystilbenes as AhR and Nrf2 modulators and their therapeutic applications” (Resolvex Pharmaceuticals Inc., priority 2017, dated 2021)
